Reference: patent US10414811B2, “Protease-resistant lipidated GLP-1 analogs” (MEDIMMUNE LIMITED, priority 2015, dated 2019)
Where two headings read alike, the source gives them in different places. Numbered stars: 1 amine (or outer) side, 2 acyl side, 3 side chain; on linkers, the order of the positions; unused ones are H or OH. Square brackets hold non-standard residues; d marks the D form. Side chains are listed from the residue outwards. Peptide text beside a SMILES is read from it. * marks the point of attachment. γGlu = O=C(O)[C@H](CCC(=O)[*:2])N[*:1]; Palmitoyl = CCCCCCCCCCCCCCCC(=O)*; αMeF = C[C@](N)(Cc1ccccc1)C(=O)O; αMeK = C[C@](N)(CCCCN)C(=O)O; Lauroyl = CCCCCCCCCCCC(=O)*; αMeS = C[C@](N)(CO)C(=O)O; AEEA = NCCOCCOCC(=O)O; Aib = CC(C)(N)C(=O)O

Experiments:
Type in all cases: cell-based
[1] = biological target: T1, human GLP-1 receptor (GLP-1R) (Homo sapiens, UniProt P43220); assay: cAMP assay, human GLP-1R cells
T1 construct: expressed in transfected cells
Outline: (§1)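 Peptide-stimulated cAMP measured by two-step HTRF after a 30 min room-temperature incubation with receptor-expressing cells (hGLP-1R, hGIPR at 1×10^5 cells/ml; hGCGR at 2×10^5 cells/ml). Duplicate dilutions; EC50 from 4-parameter logistic fit of % Delta F.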

[2] = biological target: T2, human glucagon receptor (GCGR) (Homo sapiens, UniProt P47871); assay: cAMP assay, human GCGR cells
T2 construct: expressed in transfected cells
Outline: as §1

[3] = biological target: T3, human glucose-dependent insulinotropic peptide receptor (GIPR) (Homo sapiens, UniProt P48546); assay: cAMP assay, human GIPR cells
T3 construct: expressed in transfected cells
T3 sequence (P48546 22-466): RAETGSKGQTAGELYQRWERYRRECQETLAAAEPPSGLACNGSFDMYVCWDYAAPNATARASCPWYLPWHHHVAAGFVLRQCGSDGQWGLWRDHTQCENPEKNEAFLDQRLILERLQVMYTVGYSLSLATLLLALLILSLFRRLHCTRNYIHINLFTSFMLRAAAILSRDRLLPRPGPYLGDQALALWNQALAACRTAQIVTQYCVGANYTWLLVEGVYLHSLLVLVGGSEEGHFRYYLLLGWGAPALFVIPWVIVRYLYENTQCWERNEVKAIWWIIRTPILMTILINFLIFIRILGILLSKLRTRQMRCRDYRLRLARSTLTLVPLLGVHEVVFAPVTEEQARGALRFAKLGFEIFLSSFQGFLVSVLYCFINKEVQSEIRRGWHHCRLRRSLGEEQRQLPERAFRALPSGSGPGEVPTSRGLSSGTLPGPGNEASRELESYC
Outline: as §1

[4] = cAMP assay, first determination (n1), read-out: Primary assay EC50 GLP-1R n1
[5] = cAMP assay, second determination (n2), read-out: Primary assay EC50 GLP-1R n2
[6] = mean of n1 and n2, read-out: Mean pM GLP-1R
[7] = cAMP assay, first determination (n1), read-out: Primary assay EC50 Gluc-R (n1)
[8] = cAMP assay, second determination (n2), read-out: Primary assay EC50 Gluc-R (n2)
[9] = cAMP assay, first determination (n1), read-out: Primary assay EC50 GIP-R (n1)
[10] = cAMP assay, second determination (n2), read-out: Primary assay EC50 GIP-R (n2)

T1 sequence (P43220 24-463): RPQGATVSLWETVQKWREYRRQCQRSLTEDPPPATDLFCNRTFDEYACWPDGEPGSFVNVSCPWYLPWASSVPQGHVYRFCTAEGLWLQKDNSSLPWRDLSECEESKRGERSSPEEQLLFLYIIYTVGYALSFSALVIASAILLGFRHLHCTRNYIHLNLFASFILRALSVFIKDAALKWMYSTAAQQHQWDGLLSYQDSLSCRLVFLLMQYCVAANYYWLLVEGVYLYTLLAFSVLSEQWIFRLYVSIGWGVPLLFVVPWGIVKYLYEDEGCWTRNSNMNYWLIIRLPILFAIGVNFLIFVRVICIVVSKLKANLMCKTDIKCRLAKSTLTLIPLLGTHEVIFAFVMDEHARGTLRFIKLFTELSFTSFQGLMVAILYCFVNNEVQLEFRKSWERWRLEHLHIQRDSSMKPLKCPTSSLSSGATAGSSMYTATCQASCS
T2 sequence (P47871 26-477): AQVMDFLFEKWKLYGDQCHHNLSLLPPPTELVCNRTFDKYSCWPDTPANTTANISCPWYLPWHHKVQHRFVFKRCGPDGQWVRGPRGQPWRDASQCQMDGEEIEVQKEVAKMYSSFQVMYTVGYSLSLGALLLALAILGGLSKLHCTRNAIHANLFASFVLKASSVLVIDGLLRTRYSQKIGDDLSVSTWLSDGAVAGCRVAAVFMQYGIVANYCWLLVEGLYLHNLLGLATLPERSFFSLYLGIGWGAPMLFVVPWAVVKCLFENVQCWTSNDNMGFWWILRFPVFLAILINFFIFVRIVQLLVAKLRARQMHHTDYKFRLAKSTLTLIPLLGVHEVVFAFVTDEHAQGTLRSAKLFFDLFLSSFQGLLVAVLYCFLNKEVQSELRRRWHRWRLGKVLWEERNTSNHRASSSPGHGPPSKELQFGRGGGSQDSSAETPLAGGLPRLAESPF

| EC50 ([1]; tris-lipidated peptides, mean of n1 and n2, read-out: Primary assay EC50 Mean pM GLP-1R) [pM] | EC50 ([1]; tris-lipidated peptides, replicate n1, read-out: Primary assay EC50 GLP-1R n1) [pM] | EC50 ([1]; tris-lipidated peptides, replicate n2, read-out: Primary assay EC50 GLP-1R n2) [pM] | EC50 ([2]; tris-lipidated peptides, second replicate, read-out: Primary assay EC50 Gluc-R (n2)) [nM] | EC50 ([3]; tris-lipidated peptides, second replicate, read-out: Primary assay EC50 GIP-R (n2)) [nM] | EC50 [1, 4] [pM] | EC50 [1, 5] [pM] | EC50 [1, 6] [pM] | EC50 [2, 7] [nM] | EC50 [2, 8] [nM] | EC50 [3, 9] [nM] | EC50 [3, 10] [nM] | SMILES |
| --- | --- | --- | --- | --- | --- | --- | --- | --- | --- | --- | --- | --- |
| 212 | 165 | 259 | 19.9 | 19.9 | – | – | – | – | – | – | – | CCCCCCCCCCCC(=O)N[C@@H](CCC(=O)NCCOCCOCC(=O)NCCOCCOCC(=O)NCCCC[C@H](NC(=O)[C@H](Cc1ccc(O)cc1)NC(=O)[C@H](CO)NC(=O)[C@](C)(CO)NC(=O)[C@@H](NC(=O)[C@H](CC(=O)O)NC(=O)[C@H](CO)NC(=O)[C@@H](NC(=O)[C@](C)(Cc1ccccc1)NC(=O)[C@H](CO)NC(=O)CNC(=O)[C@H](CCC(=O)O)NC(=O)C(C)(C)NC(=O)[C@@H](N)Cc1c[nH]cn1)[C@@H](C)O)C(C)C)C(=O)N[C@@H](CCC(=O)O)C(=O)NCC(=O)N[C@@H](CCC(=O)O)C(=O)N[C@@H](C)C(=O)N[C@@H](C)C(=O)N[C@@](C)(CCCCN)C(=O)N[C@@H](CCCCNC(=O)COCCOCCNC(=O)COCCOCCNC(=O)CC[C@H](NC(=O)CCCCCCCCCCC)C(=O)O)C(=O)N[C@@H](Cc1ccccc1)C(=O)N[C@H](C(=O)N[C@@H](C)C(=O)N[C@@H](Cc1ccccc1)C(=O)N[C@@H](CCCCNC(=O)COCCOCCNC(=O)COCCOCCNC(=O)CC[C@H](NC(=O)CCCCCCCCCCC)C(=O)O)C(=O)N[C@H](C(=O)N[C@@H](CCC(=O)O)C(=O)NCC(=O)NCC(N)=O)C(C)C)[C@@H](C)CC)C(=O)O [compound 486] (H-H[Aib]EGS[αMeF]TSDV[αMeS]SYK([AEEA-AEEA-γGlu-Lauroyl])EGEAA[αMeK]K([AEEA-AEEA-γGlu-Lauroyl])FIAFK([AEEA-AEEA-γGlu-Lauroyl])VEGG-NH2; N-terminus assumed) |
| – | – | – | – | – | ≥ 28000 | ≥ 28000 | ≥ 27500 | ≥ 28 | ≥ 28 | ≥ 28 | ≥ 28 | CCCCCCCCCCCCCCCC(=O)N[C@@H](CCC(=O)NCCCC[C@H](NC(=O)[C@@H](N)Cc1c[nH]cn1)C(=O)N[C@@H](CCC(=O)O)C(=O)NCC(=O)N[C@@H](CO)C(=O)N[C@@](C)(Cc1ccccc1)C(=O)N[C@H](C(=O)N[C@@H](CO)C(=O)N[C@@H](CC(=O)O)C(=O)N[C@H](C(=O)N[C@@](C)(CO)C(=O)N[C@@H](CO)C(=O)N[C@@](C)(Cc1ccccc1)C(=O)N[C@@H](CC(C)C)C(=O)N[C@@H](CCC(=O)O)C(=O)NCC(=O)N[C@@H](CCC(=O)O)C(=O)N[C@@H](C)C(=O)N[C@@H](C)C(=O)N[C@@](C)(CCCCN)C(=O)N[C@@H](CCC(=O)O)C(=O)N[C@@](C)(Cc1ccccc1)C(=O)N[C@H](C(=O)N[C@@H](C)C(=O)N[C@@](C)(Cc1ccccc1)C(=O)N[C@H](C(=O)N[C@H](C(=O)N[C@@](C)(CCCCN)C(=O)NCC(=O)NCC(N)=O)C(C)C)C(C)C)[C@@H](C)CC)C(C)C)[C@@H](C)O)C(=O)O [compound 98] |
| – | – | – | – | – | 16 | 8.7 | 12.1 | ≥ 26 | ≥ 26 | ≥ 26 | ≥ 26 | CCCCCCCCCCCCCCCCCC(=O)N[C@@H](CCC(=O)N[C@@H](CCC(=O)N[C@@H](CCC(=O)NCCCC[C@H](NC(=O)[C@H](C)NC(=O)[C@H](C)NC(=O)[C@H](CCC(=O)O)NC(=O)CNC(=O)[C@H](CCC(=O)O)NC(=O)[C@H](CC(C)C)NC(=O)[C@](C)(Cc1ccccc1)NC(=O)[C@H](CO)NC(=O)[C@](C)(CO)NC(=O)[C@@H](NC(=O)[C@H](CC(=O)O)NC(=O)[C@H](CO)NC(=O)[C@@H](NC(=O)[C@](C)(Cc1ccccc1)NC(=O)[C@H](CO)NC(=O)CNC(=O)[C@H](CCC(=O)O)NC(=O)C(C)(C)NC(=O)[C@@H](N)Cc1c[nH]cn1)[C@@H](C)O)C(C)C)C(=O)N[C@@H](CCC(=O)O)C(=O)N[C@@](C)(Cc1ccccc1)C(=O)N[C@H](C(=O)N[C@@H](C)C(=O)N[C@@](C)(Cc1ccccc1)C(=O)N[C@H](C(=O)N[C@H](C(=O)N[C@@](C)(CCCCN)C(=O)NCC(=O)NCC(N)=O)C(C)C)C(C)C)[C@@H](C)CC)C(=O)O)C(=O)O)C(=O)O [compound 148] |
| – | – | – | – | – | 15000 | 12000 | 13500 | ≥ 290 | ≥ 290 | ≥ 290 | ≥ 290 | CC[C@H](C)[C@H](NC(=O)[C@H](Cc1ccccc1)NC(=O)[C@H](CCC(=O)O)NC(=O)[C@H](CCCCN)NC(=O)[C@H](C)NC(=O)[C@H](C)NC(=O)[C@H](CCC(N)=O)NC(=O)CNC(=O)[C@H](CCC(=O)O)NC(=O)[C@H](CC(C)C)NC(=O)[C@H](Cc1ccc(O)cc1)NC(=O)[C@H](CO)NC(=O)[C@H](CO)NC(=O)[C@@H](NC(=O)[C@H](CC(=O)O)NC(=O)C(C)(C)NC(=O)[C@@H](NC(=O)[C@H](Cc1ccccc1)NC(=O)[C@@H](NC(=O)CNC(=O)[C@H](CCC(=O)O)NC(=O)C(C)(C)NC(=O)[C@@H](N)Cc1c[nH]cn1)[C@@H](C)O)[C@@H](C)O)C(C)C)C(=O)N[C@@H](C)C(=O)N[C@@H](Cc1c[nH]c2ccccc12)C(=O)N[C@@H](CC(C)C)C(=O)N[C@H](C(=O)N[C@@H](CCCCN)C(=O)NCC(=O)N[C@@H](CCCNC(=N)N)C(N)=O)C(C)C [compound 20] (H-H[Aib]EGTFT[Aib]DVSSYLEGQAAKEFIAWLVKGR-NH2) |
| – | – | – | – | – | 22 | 9.6 | 16 | 7.6 | 4.1 | 0.69 | 0.63 | CCCCCCCCCCCCCCCC(=O)N[C@@H](CCC(=O)NCCCC[C@H](NC(=O)[C@H](CC(=O)O)NC(=O)[C@H](CO)NC(=O)[C@@H](NC(=O)[C@](C)(Cc1ccccc1)NC(=O)[C@H](CO)NC(=O)CNC(=O)[C@H](CCC(N)=O)NC(=O)C(C)(C)NC(=O)[C@@H](N)Cc1c[nH]cn1)[C@@H](C)O)C(=O)N[C@@H](CO)C(=O)N[C@@H](CCC(=O)O)C(=O)N[C@@](C)(Cc1ccccc1)C(=O)N[C@@H](CC(C)C)C(=O)N[C@@H](CC(=O)O)C(=O)N[C@@H](CO)C(=O)N[C@@H](CCC(=O)O)C(=O)N[C@@H](CCCNC(=N)N)C(=O)N[C@@H](C)C(=O)N[C@@H](CCCNC(=N)N)C(=O)N[C@@H](CC(=O)O)C(=O)N[C@@](C)(Cc1ccccc1)C(=O)N[C@H](C(=O)N[C@@H](C)C(=O)N[C@@](C)(Cc1ccccc1)C(=O)N[C@@H](CC(C)C)C(=O)N[C@@H](CCC(=O)O)C(=O)N[C@@H](C)C(=O)NCC(=O)NCC(N)=O)C(C)C)C(=O)O [compound 13] (H-H[Aib]QGS[αMeF]TSDK([γGlu-Palmitoyl])SE[αMeF]LDSERARD[αMeF]VA[αMeF]LEAGG-NH2) |
| – | – | – | – | – | 64 | 31 | 47.4 | ≥ 26 | ≥ 26 | ≥ 26 | ≥ 26 | CCCCCCCCCCCCCCCCCC(=O)NCCCCCC(=O)NCCCCCC(=O)NCCCCCC(=O)NCCCC[C@H](NC(=O)[C@@H](NC(=O)[C@@H](NC(=O)[C@](C)(Cc1ccccc1)NC(=O)[C@H](C)NC(=O)[C@@H](NC(=O)[C@](C)(Cc1ccccc1)NC(=O)[C@H](CCC(=O)O)NC(=O)[C@](C)(CCCCN)NC(=O)[C@H](C)NC(=O)[C@H](C)NC(=O)[C@H](CCC(=O)O)NC(=O)CNC(=O)[C@H](CCC(=O)O)NC(=O)[C@H](CC(C)C)NC(=O)[C@](C)(Cc1ccccc1)NC(=O)[C@H](CO)NC(=O)[C@](C)(CO)NC(=O)[C@@H](NC(=O)[C@H](CC(=O)O)NC(=O)[C@H](CO)NC(=O)[C@@H](NC(=O)[C@](C)(Cc1ccccc1)NC(=O)[C@H](CO)NC(=O)CNC(=O)[C@H](CCC(=O)O)NC(=O)C(C)(C)NC(=O)[C@@H](N)Cc1c[nH]cn1)[C@@H](C)O)C(C)C)[C@@H](C)CC)C(C)C)C(C)C)C(=O)NCC(=O)NCC(N)=O [compound 187] |
| – | – | – | – | – | 450 | 650 | 548 | ≥ 28 | ≥ 28 | ≥ 28 | ≥ 28 | CCCCCCCCCCCCCCCC(=O)N[C@@H](CCC(=O)NCCCC[C@H](NC(=O)[C@@H](NC(=O)[C@H](CC(=O)O)NC(=O)[C@H](CO)NC(=O)[C@@H](NC(=O)[C@](C)(Cc1ccccc1)NC(=O)[C@H](CO)NC(=O)CNC(=O)[C@H](CCC(=O)O)NC(=O)C(C)(C)NC(=O)[C@@H](N)Cc1c[nH]cn1)[C@@H](C)O)C(C)C)C(=O)N[C@@H](CO)C(=O)N[C@@](C)(Cc1ccccc1)C(=O)N[C@@H](CC(C)C)C(=O)N[C@@H](CCC(=O)O)C(=O)NCC(=O)N[C@@H](CCC(=O)O)C(=O)N[C@@H](C)C(=O)N[C@@H](C)C(=O)N[C@@](C)(CCCCN)C(=O)N[C@@H](CCC(=O)O)C(=O)N[C@@](C)(Cc1ccccc1)C(=O)N[C@H](C(=O)N[C@@H](C)C(=O)N[C@@](C)(Cc1ccccc1)C(=O)N[C@H](C(=O)N[C@H](C(=O)N[C@@](C)(CCCCN)C(=O)NCC(=O)NCC(N)=O)C(C)C)C(C)C)[C@@H](C)CC)C(=O)O [compound 89] |
